Results on seven molecules are retold here after article PMC8745223, “Novel 1,3,5-Triazinyl Aminobenzenesulfonamides Incorporating Aminoalcohol, Aminochalcone and Aminostilbene Structural Motifs as Potent Anti-VRE Agents, and Carbonic Anhydrases I, II, VII, IX, and XII Inhibitors” (International Journal of Molecular Sciences, 2021).

The structures appear in SMILES notation. Values after ≈ are worked out from the molar mass of the structure shown. Bounds are passed on as bounds.

In assay [1] the test system is T1, E. faecalis ATCC 29212 (EF).
T1 construct: ATCC 29212
In words: microbe, parasite or virus in culture. Conditions: Enterococcus faecalis, ATCC29212, 24 h. Set-up: broth microdilution MIC in BHI, Alamar Blue read-out, 37 °C. Here is the method: (§1) The inhibition activity against enterococci was evaluated by the microtitration broth method according to the Clinical and Laboratory Standards Institute with some modifications. The compounds were dissolved in DMSO and serially diluted in Brain Hearth Infusion (BHI) to reach concentrations 256–2 µg/mL. […] The experiment was repeated at least three times. All the investigated compounds were tested on their anti-staphylococcal activity against three clinical isolates of methicillin-resistant Staphylococcus aureus (MRSA) and S. aureus ATCC 29213 as the reference and quality control strain.

The subject of assay [2] is T2, Enterococcus faecalis VRE 725 B.
T2 construct: VRE 725B (vanA clinical isolate)
In words: organism not typed. Set-up: broth microdilution MIC in BHI, Alamar Blue read-out, 37 °C. Conditions: 24 h. As to the method:
as §1, with “strain. […] All the compounds were tested against Enterococcus faecalis ATCC 29212 as the reference strain and three isolates from American crows of vanA-carrying vancomycin-resistant E. faecalis (VRE), and the activities, expressed as minimum inhibitory concentrations (MICs), are listed in Table 3.” for “strain.”

Assay [3] concerns the target T3, hCA VII (Homo sapiens, UniProt P43166).
T3 construct: gene CA7; recombinant
In words: stopped-flow CO2 hydration assay. Type of assay: biochemical. The gist of the method: (§2)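 Recombinant human carbonic anhydrase CO2 hydration was followed by stopped-flow for 10–100 s with 0.2 mM phenol red (557 nm), 20 mM Hepes pH 7.5, 20 mM Na2SO4 and 1.7–17 mM CO2. Enzyme and inhibitor (diluted to 0.005 nM in buffer) were preincubated 15 min at room temperature. Initial rates used at least six traces, with uncatalysed rates subtracted. Ki was fitted by non-linear least squares with Cheng–Prusoff equation, averaged over three or more determinations.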

Assay [4] relates to T4, Enterococcus faecalis VRE 342 B.
T4 construct: VRE 342 B (vanA clinical isolate)
In words: organism not typed. Set-up: broth microdilution MIC in BHI, Alamar Blue read-out, 37 °C. To be noted: 24 h. Here is the method: as §1

Assay [5] has as its system T5, Enterococcus faecalis VRE 368.
T5 construct: VRE 368 (vanA clinical isolate)
In words: organism not typed. The arrangement: broth microdilution MIC in BHI, Alamar Blue read-out, 37 °C. To be noted: 24 h. Here is the method:
as §1

In assay [6] the target is T6, hCA II (Homo sapiens, UniProt P00918).
T6 construct: gene CA2; recombinant
In words: stopped-flow CO2 hydration assay. The format is biochemical. The gist of the method:
as §2

Assay [7] concerns the target T7, hCA I (Homo sapiens, UniProt P00915).
T7 construct: gene CA1; recombinant
In words: stopped-flow CO2 hydration assay. Type of assay: biochemical. The gist of the method:
as §2

Assay [8] is described as follows: stopped-flow CO2 hydration assay. Type of assay: biochemical, Homo sapiens. To be noted: read-out: KI (nM) ^a / hCA I. The method in brief:
as §2

Assay [9] relates to T4, Enterococcus faecalis VRE 342 B. In words: organism not typed. The arrangement: broth microdilution MIC in BHI, Alamar Blue read-out, 37 °C. To be noted: 24 h. Here is the method:
as §1, with “strain. […] All the compounds were tested against Enterococcus faecalis ATCC 29212 as the reference strain and three isolates from American crows of vanA-carrying vancomycin-resistant E. faecalis (VRE), and the activities, expressed as minimum inhibitory concentrations (MICs), are listed in Table 3.” for “strain.”
This is another data set of the same source.

Assay [10] deals with T5, Enterococcus faecalis VRE 368. In words: organism not typed. Set-up: broth microdilution MIC in BHI, Alamar Blue read-out, 37 °C. To be noted: 24 h. Here is the method: as §1, with “strain. […] All the compounds were tested against Enterococcus faecalis ATCC 29212 as the reference strain and three isolates from American crows of vanA-carrying vancomycin-resistant E. faecalis (VRE), and the activities, expressed as minimum inhibitory concentrations (MICs), are listed in Table 3.” for “strain.”
This is another data set of the same source.

For assay [11], the target named is T6, hCA II. In words: biochemical. The arrangement: stopped-flow CO2 hydration assay, phenol red indicator at 557 nm, 15 min preincubation with inhibitor. Here is the method: (§3) AnSX.18MV-R Applied Photophysics stopped-flow instrument (Applied Photophysics, Leatherhead, UK) has been used for assaying the CA catalyzed CO2 hydration activity. Phenol red (at a concentration of 0.2 mM) has been used as an indicator, working at the absorbance maximum of 557 nm, with 20 mM Hepes (pH 7.5) as a buffer and 20 mM Na2SO4 (for maintaining constant the ionic strength), following the CA-catalyzed CO2 hydration reaction for a period of 10–100 s. The CO2 concentrations ranged from 1.7 to 17 mM for the determination of the kinetic parameters and inhibition constants. For each inhibitor, at least six traces of the initial 5–10% of the reaction were used for determining the initial velocity. The uncatalyzed rates were determined in the same manner and were subtracted from the total observed rates. Stock solutions of the inhibitor (0.1 mM) were prepared in distilled-deionized water, and dilutions up to 0.005 nM were done thereafter with the assay buffer. Inhibitor and enzyme solutions were preincubated together for 15 min at room temperature prior to assay in order to allow for the formation of the E–I complex. The inhibition constants were obtained by non-linear least-squares methods using PRISM 3 and the ChengPrusoff equation, as reported earlier, and represent the mean from at least three different determinations. All CA isoforms were recombinant ones and were prepared as reported earlier. Errors in the range of 5–10% of the reported value (Mean from three different assays, by stopped-flow technique). The presence of aminobenzenesulfonamide structural moiety in the structure of target compounds 1–44 can cause inhibition activity in these compounds against human carbonic anhydrases. The inhibition of physiologically relevant hCA I and hCA II can lead to various undesirable side effects. On the other hand, the inhibition of tumor-associated isoenzymes hCA IX and hCA XII could be a great benefit in tumor treatment. Inhibition of isoenzyme hCA VII, which is presented mostly in the brain, can be a new approach for the treatment of epilepsy or chronic neuropathic pain [42, 43]. Compounds 1–44 were evaluated as potential inhibitors of hCA I, hCA II, hCA VII, hCA IX, and hCA XII. The inhibition activities against individual hCAs were determined by methodology based on stopped-flow assay. For completeness, Table 2 also includes the previously published inhibition activities of compounds 2, 3, 5–12 and 18–19. Values of KIs were compared with clinically used sulfonamides as standards—AAZ (acetazolamide), BRZ (brinzolamide), DCP (dichlorphenamide), DZA (dorzolamide), EZA (ethoxzolamide), MZA (methazolamide), and IND (indisulam; canceled in clinical trials).

The target in assay [12] is T3, hCA VII. In words: biochemical. The arrangement: stopped-flow CO2 hydration assay, phenol red indicator at 557 nm, 15 min preincubation with inhibitor. As to the method:
as §3

Assay [13] deals with T8, hCA IX (Homo sapiens, UniProt Q16790).
T8 construct: gene CA9; recombinant
In words: biochemical. The arrangement: stopped-flow CO2 hydration assay, phenol red indicator at 557 nm, 15 min preincubation with inhibitor. As to the method:
as §3

In assay [14] the target is T7, hCA I. In words: biochemical. The arrangement: stopped-flow CO2 hydration assay, phenol red indicator at 557 nm, 15 min preincubation with inhibitor. Here is the method: as §3
Assay [15] has as its system T1, E. faecalis ATCC 29212 (EF). In words: microbe, parasite or virus in culture. The arrangement: broth microdilution MIC in BHI, Alamar Blue read-out, 37 °C. Conditions: Enterococcus faecalis, ATCC29212, 24 h. Here is the method: as §1, with “strain. […] All the compounds were tested against Enterococcus faecalis ATCC 29212 as the reference strain and three isolates from American crows of vanA-carrying vancomycin-resistant E. faecalis (VRE), and the activities, expressed as minimum inhibitory concentrations (MICs), are listed in Table 3.” for “strain.”
This is another data set of the same source.

For assay [16], the target named is T7, hCA I. In words: biochemical. Set-up: stopped-flow CO2 hydration assay, phenol red indicator 557 nm, recombinant human CA, 15 min preincubation. Here is the method:
as §3, with “On the other hand, the inhibition of tumor-associated isoenzymes hCA IX and hCA XII could be a great benefit in tumor treatment. Inhibition of isoenzyme hCA VII, which is presented mostly in the brain, can be a new approach for the treatment of epilepsy or chronic neuropathic pain [42, 43].” left out, “For completeness, Table 2 also includes the previously published inhibition activities of compounds 2, 3, 5–12 and 18–19. Values of KIs were compared with clinically used sulfonamides as standards—AAZ (acetazolamide), BRZ (brinzolamide), DCP (dichlorphenamide), DZA (dorzolamide), EZA (ethoxzolamide), MZA (methazolamide), and IND (indisulam; canceled in clinical trials).” left out

Assay [17] addresses T8, hCA IX. In words: stopped-flow CO2 hydration assay. The format is biochemical. The gist of the method:
as §2

A further assay concerns the target T9, hCA XII (Homo sapiens, UniProt O43570).
T9 construct: gene CA12; recombinant
In words: stopped-flow CO2 hydration assay. Type of assay: biochemical. The method in brief: as §2

T7 sequence (P00915 2-261): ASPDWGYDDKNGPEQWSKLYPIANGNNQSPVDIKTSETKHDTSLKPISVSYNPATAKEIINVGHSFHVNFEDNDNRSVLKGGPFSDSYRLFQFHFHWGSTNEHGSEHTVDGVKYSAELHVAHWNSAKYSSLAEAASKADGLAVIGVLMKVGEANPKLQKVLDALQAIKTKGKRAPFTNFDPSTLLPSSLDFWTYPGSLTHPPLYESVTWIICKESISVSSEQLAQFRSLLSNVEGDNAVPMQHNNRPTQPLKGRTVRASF
T9 sequence (O43570 25-354): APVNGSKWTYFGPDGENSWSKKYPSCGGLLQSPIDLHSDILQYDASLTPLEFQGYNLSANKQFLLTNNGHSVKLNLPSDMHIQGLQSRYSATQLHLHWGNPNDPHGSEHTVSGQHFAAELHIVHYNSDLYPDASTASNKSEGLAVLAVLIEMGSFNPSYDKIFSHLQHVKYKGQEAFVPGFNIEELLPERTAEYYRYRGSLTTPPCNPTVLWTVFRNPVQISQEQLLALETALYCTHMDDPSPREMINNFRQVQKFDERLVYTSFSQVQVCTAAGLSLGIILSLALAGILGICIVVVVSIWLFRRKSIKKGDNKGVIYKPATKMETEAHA
T3 sequence (P43166 whole entry): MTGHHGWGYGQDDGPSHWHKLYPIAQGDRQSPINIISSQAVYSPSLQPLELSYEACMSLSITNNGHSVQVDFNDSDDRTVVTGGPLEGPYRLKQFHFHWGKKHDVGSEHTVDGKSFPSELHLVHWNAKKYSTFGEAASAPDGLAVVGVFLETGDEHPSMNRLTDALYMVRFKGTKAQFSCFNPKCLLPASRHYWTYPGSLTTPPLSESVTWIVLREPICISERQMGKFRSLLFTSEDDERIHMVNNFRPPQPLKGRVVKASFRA

For `NS(=O)(=O)c1ccc(CNc2nc(NCCCO)nc(Nc3ccc(C(=O)/C=C/c4cccc(O)c4)cc3)n2)cc1` [compound 15, 15], the MIC in [1] came out at 222 µM (≈ 128 µg/mL); in [2], 111 µM (≈ 63.9 µg/mL); in [4], 222 µM (≈ 128 µg/mL); in assay [5] it was 111 µM (≈ 63.9 µg/mL). Also, the Ki at hCA VII [3] is 25.9 nM; on hCA II [6] it was 3020 nM; on hCA I [7] it was more than 10000 nM; in assay [8] it was more than 10000 nM.
In the case of `NS(=O)(=O)c1ccc(CCNc2nc(Nc3ccc(O)cc3)nc(Nc3ccc(C(=O)/C=C/c4ccccc4)cc3)n2)cc1` [compound 21, (E)-4-[2-({4-[(4-Cinnamoylphenyl)amino]-6-[(4-hydroxyphenyl)amino]-1,3,5-triazin-2-yl}amino)ethyl]benzenesulfonamide], the MIC in assay [1], in assay [2], in assay [4] and in assay [5] was 26.3 µM (≈ 16 µg/mL) throughout. Moreover, the Ki on hCA VII [3] was 810 nM; on hCA II [6] it was 3160 nM; on hCA I [7], more than 10000 nM; in assay [8] it was more than 10000 nM.
With `NS(=O)(=O)c1ccc(CCNc2nc(NCC(O)CO)nc(Nc3ccc(C(=O)/C=C/c4ccccc4O)cc3)n2)cc1` (centres unmarked) [compound 23, 23], the MIC was 52.8 µM (≈ 32 µg/mL) in assay [1], 105 µM (≈ 63.6 µg/mL) in [2], 52.8 µM (≈ 32 µg/mL) in assay [4] and 52.8 µM (≈ 32 µg/mL) in [5]. The Ki was 88.7 nM at hCA VII [3], 83 nM at hCA II [6], more than 10000 nM at hCA I [7] and more than 10000 nM in assay [8].
Regarding `NS(=O)(=O)c1ccc(CNc2nc(NCC(O)CO)nc(Nc3ccc(C(=O)/C=C/c4ccc(O)cc4)cc3)n2)cc1` (centres unmarked) [compound 28, 28], the MIC in assay [9], in [2], in assay [10] and in assay [15] was more than 444 µM throughout. In addition, the Ki on hCA II [11] turned out to be 184 nM; at hCA VII [12], 594 nM; on hCA IX [13], 8460 nM; on hCA I [14], 8220 nM.
With `NS(=O)(=O)c1ccc(CCNc2nc(NCCc3ccc(S(N)(=O)=O)cc3)nc(Nc3ccc(/C=C/c4cccc(O)c4)cc3)n2)cc1` [compound 41, (E)-4,4’-{[(6-{[4-(3-Hydroxystyryl)phenyl]amino}-1,3,5-triazin-2,4-diyl)bis(azandiyl)]bis(ethan-2,1-diyl)} benzenesulfonamide], the MIC in assay [1] is 372 µM (≈ 255 µg/mL); in assay [2], more than 372 µM; in [4] it was more than 372 µM; in assay [5], more than 372 µM. In addition, the Ki at hCA I [16] is 608 nM; at hCA II [6], 41.4 nM; on hCA IX [17] it was 31.1 nM; at hCA XII, 62.2 nM.
As for `NS(=O)(=O)c1ccc(CCNc2nc(Nc3ccc(O)cc3)nc(Nc3ccc(/C=C/c4ccc(O)cc4)cc3)n2)cc1` [compound 43, 43], the MIC in assay [1] is 429 µM (≈ 256 µg/mL); in assay [2] it was more than 429 µM; in assay [4] it was more than 429 µM; in assay [5], more than 429 µM. Moreover, the Ki is 4060 nM at hCA I [16], 4840 nM at hCA II [6], 25.7 nM at hCA IX [17] and 702 nM at hCA XII.
Consider `NS(=O)(=O)c1ccc(CCNc2nc(NCc3ccc(S(N)(=O)=O)cc3)nc(Nc3ccc(/C=C/c4ccc(O)cc4)cc3)n2)cc1` [compound 44, (E)-4-{2-[(4-{[4-(4-Hydroxystyryl)phenyl]amino}-6-[(4-sulfamoylbenzyl)amino]-1,3,5-triazin-2-yl)amino]ethyl}benzenesulfonamide], for which the MIC is 380 µM (≈ 256 µg/mL) in assay [1], 380 µM (≈ 256 µg/mL) in assay [2], 190 µM (≈ 128 µg/mL) in [4] and more than 380 µM in assay [5]. Besides, the Ki on hCA I [16] amounted to 859 nM; on hCA II [6], 252 nM; at hCA IX [17], 249 nM; on hCA XII it was 10 nM.
